Literature values in US8309607B2, “Rapid release irbesartan-containing pharmaceutical composition” (ratiopharm GmbH, priority 2006, dated 2012).

Conditions: in vivo

CCCCC1=NC2(CCCC2)C(=O)N1Cc1ccc(-c2ccccc2-c2nnn[nH]2)cc1 [Irbesartan, 2-n-butyl-4-spirocyclopentane-1-[(2′-(tetrazol-5-yl)biphenyl-4-yl)methyl]-2-imidazolin-5-one]
oral bioavailability: acceptable oral bioavailability
